Experimental data published in patent US9322049B2, “Activation and activators of SirT6” (CORNELL UNIVERSITY, priority 2009, dated 2016).
Like-named read-outs stand apart in the source and are kept apart here.

How the values were obtained:
SirT6 [1] = biological target: T1, SirT6 (Homo sapiens, UniProt Q8N6T7); assay: Activation of SIRT6 by nucleosides or nucleotides, HPLC of AADPR (Example 8); type: biochemical; conditions: 800 μM NAD+, 500 μM H3 peptide, 11.3 μM SIRT6
T1 construct: The protein expression and purification were the same as the full length SIRT6 as described above; made in house; host or cells: E. coli BL21 Codon-plus RIPL
Description: Reactions containing 800 μM NAD^+, 500 μM H3 peptide, and 100 mM phosphate buffer at pH 7.5, with varying concentrations of nucleosides or nucleotides were initiated by addition of SIRT6 enzyme to a concentration of 11.3 μM. Reactions were incubated for 2 hours at 37° C. and quenched by addition of trifluoroacetic acid to pH 2. After centrifugation to remove precipitates, reactions were injected on HPLC for activity analysis. Production of 2′- and 3′-AADPR were analyzed at 260 nm.

SirT6-DNA complex = biological target: T2, SirT6-DNA complex (Homo sapiens, UniProt Q8N6T7); assay: Suramin competition with binding of linearized DNA to SIRT6 (Example 6); conditions: for Kd: read-out: Kd of suramin for dissociation of linearized DNA from SirT6
T2 construct: The protein expression and purification were the same as the full length SIRT6 as described above; made in house; host or cells: E. coli BL21 Codon-plus RIPL
Description: The linearized DNA was incubated with SirT6 and Ni-NTA resin. The resin was washed as described in Materials and Methods, and the complex of SirT6-DNA was dissociated by 1 mM suramin. The parallel experiments were done in the presence of 500 uM H3 peptide. DNA bound to SirT6 was quantified and fit to Michaelis-Menten equation to get Kd of DNA binding to the enzyme. […] The single stranded DNA was incubated with SirT6 and Ni-NTA resin. The resin was washed and the complex of SirT6-ssDNA was dissociated by 1 mM suramin. The parallel experiments were done in the presence of 500 uM H3 peptide. […] The linearized DNA was incubated with SirT6 and Ni-NTA resin with or without H3 peptide. After washing, the resin was incubated with different concentration of surmain. The dissociated DNA was quantified by gel electrophoresis. […] After the resin was washed, DNA was dissociated with 1 mM suramin and quantified by gel electrophoresis. Lane 1, 150 ng circular pSTBlue (C-pSTBlue); Lane 2, 150 ng pSTBlue cut with BamHI (B-pSTBlue); Lane 3, 150 ng pSTBlue cut with EcoRV (E-pSTBlue); Lane 4, circular pSTBlue bound to SirT6; Lane 5, pSTBlue cut with BamHI bound to SirT6; Lane 6, pSTBlue cut with EcoRV bound to SirT6; Lane 7, circular pSTBlue bound to SirT6 in the presence of H3; Lane 8, pSTBlue cut with BamHI bound to SirT6 in the presence of H3; Lane 9, pSTBlue cut with EcoRV bound to SirT6 in the presence of H3; Lane 10, DNA ladder.
In order to test if suramin competed with the binding of DNA to SIRT6, 20 ng/μl pSTBlue was incubated with 5 μM SIRT6, 25% slurry Ni-NTA resin, and/or 1 mM H3 peptide. After incubation for 1 hour at room temperature, the SIRT6-DNA-resin complex was washed with 10 and 20 mM imidazole, 100 mM phosphate buffer, pH 7.5 as described above. The SIRT6-DNA-resin complex was incubated with different concentrations of suramin. The dissociated DNA was then quantified by 0.8% agarose gel electrophoresis and the DNA level was fitted to Michaelis-Menten equation using the software Kaleidagraph.

[2] = biological target: T3, truncated SirT6 (deletion of N terminal 17 amino acids) (Homo sapiens, UniProt Q8N6T7); assay: Deacetylation rate of truncated SirT6 with suramin or single stranded DNA; type: biochemical; conditions: 50 μM suramin or 100 ng/μl single stranded DNA; 800 μM NAD, 480 μM H3, 10 μM enzyme
T3 construct: The truncated SIRT6 was cloned similarly with the full length SIRT6; poly-histidine (pET28a) (N); made in house; host or cells: E. coli BL21 Codon-plus RIPL
Description: The deacetylation rate of different truncated SirT6 was normalized to the rate of full length SirT6 for the comparison.
The truncated SIRT6 was cloned similarly with the full length SIRT6. The primers used in the cloning of different truncated SIRT6 are the following: SIRT6Δ2-7 Forward 5′ GCTAGC ATGGGGCTGTCGCCGTACGCG 3′ (SEQ ID NO: 4); SIRT6Δ2-12 Forward 5′ GCTAGC ATG […] 3′ (SEQ ID NO: 5); SIRT6Δ2-18 Forward 5′ GCTAGC ATGGGCCTCCCGGAGATCTTCGAC 3′ (SEQ ID NO: 6); SIRT6Δ2-51 Forward 5′ 5′ GCTAGC ATGACGGGTGCCGGCATCAGCACT 3′ (SEQ ID NO: 7). The common reverse primer is 5′[…] 3′ (SEQ ID NO: 8). The truncated SIRT6 was amplified by PCR reaction. The PCR product was then ligated into pSTblue-1 (Novagen). After digestion with NheI and BamHI, the fragment containing SIRT6 gene was ligated into pET28a vector (Novagen). The SIRT6 truncated sequence in pET28a plasmid was confirmed by DNA sequencing, and the plasmid was then transformed into BL21Codon-plus RIPL cells (Stratagene). The protein expression and purification were the same as the full length SIRT6 as described above.

SirT6 [3] = biological target: T1, SirT6; assay: Determination of Kd of suramin for SirT6 activation by HPLC (Example 1); type: biochemical
Description: FIG. 2C depicts the determination of Kd of suramin for activation of SirT6. […] After 2 hours incubation at 37° C., the deacetylated H3 was separated from H3 by gradient (0˜30%) acetonitrile in 0.1% TFA using a C18 column, and analyzed by integrating its area at 215 nm wavelength.
The precipitated proteins and other insolubles were removed by centrifugation at 15,000 rpm for 5 minutes. The peptides were separated by a Waters Xterra RP-18 column using a gradient of 0-30% acetonitrile in 0.1% trifluoroacetic acid. […] The turnover rates versus […] were plotted and fitted to the equation: Activation (Fold)=1+m*x/(Kd+x) using the software Kaleidagraph.

SirT6 [4] = biological target: T1, SirT6; assay: Gel shift assay of DNA association to SirT6 (Example 5); type: binding; conditions: 1 mM suramin; 50 ng/μl linearized pSTBlue, 10 μM SirT6
Description: Lane 1, DNA+NAD; Lane 2, DnA+H3; Lane 3, DNA+NAD+H3; Lane 4, DNA+SirT6; Lane 5, DNA+NAD+SirT6; Lane 6, DNA+H3+SirT6; Lane 7, DNA+NAD+H3+SirT6; Lane 8, DNA+SirT6+1 mM suramin; Lane 9, DNA+NAD+SirT6+1 mM suramin; Lane 10, DNA+H3+SirT6+1 mM suramin; Lane 11, DNA+NAD+H3+SirT6+1 mM suramin; Lane 12, DNA only. […] Lane 1, DNA+H3; Lane 2, DNA+H4; Lane 3, DNA+SirT6; Lane 4, DNA+H3+SirT6; Lane 5, DNA+H4+SirT6; Lane 6, DNA+NAD+H3+SirT6; Lane 7, DNA+NAD+H4+SirT6; Lane 8, DNA+SirT6+1 mM suramin; Lane 9, DNA+H3+SirT6+1 mM suramin; Lane 10, DNA+H4+SirT6+1 mM suramin; Lane 11, DNA+NAD+H3+SirT6+1 mM suramin; Lane 12, DNA+NAD+H4+SirT6+1 mM suramin; Lane 13, DNA only. 6 μl of each sample involving 50 ng/μl linearized pSTBlue plasmid, 800 μM NAD, 10 μM SirT6, 480 μM H3/H4, and/or 1 mM suramin were loaded to 0.6% native agarose gel containing ethidium bromide and ran at 100 V for one and half hours. DNA bound to SirT6 stayed in the wells and free DNA ran to the bottom of the gel. The top arrow indicated the large complex formed by DNA and SirT6.
The plasmid pSTBlue was linearized by EcoRI, BamHI, or EcoRV, and then purified by DNA gel extraction kit (Novagen) or […]™ III kit (MP Biomedicals, LLC). 6 μl of each sample contained 50 ng/μl of linearized pSTBlue, 800 μM NAD, 10 μM SirT6/truncated form, 480 μM H3, and/or 1 mM suramin as indicated. […]

SirT6 [5] = biological target: T1, SirT6; assay: Determination of Kd of DNA for SirT6 activation by HPLC (Example 2); type: biochemical; conditions: 800 μM NAD, 480 μM H3, 10 μM SirT6, 2 hours 37° C.; unit given as mM
Description: FIG. 5A depicts a schematic of DNA structure. […] After 2 hours incubation at 37° C., either the deacetylated H3 was separated from H3 in the reaction containing the digested calf thymus DNA or AADPR was separated from other components in the reaction containing ssDNA, the plasmid, or dsDNA.
The plasmid pSTBlue was digested with BamHI and EcoRV and purified by […]™ III kit. […] The AADPR was separated by HPLC and the quantified data were fit into Michaelis-Menten equation to get Km of H3.
In the enzymatic reaction, the following DNA was used.
Calf thymus DNA (USB Corporation), which was digested with EcoRI and then purified using Spinprep Gel DNA Kit (Novagen);
ssDNA (5′ […] 3′ (SEQ ID NO: 9), Integrated DNA Technologies);
dsDNA (forward 5′ […] 3′ (SEQ ID NO: 10), reverse 5′ […] 3′ (SEQ ID NO: 11), Integrated DNA Technologies); and
pSTBlue plasmid, which was amplified using DH5α cells and purified by WIZARD™ PLUS (Midiprep) DNA purification system (Promega).
The precipitated proteins and other insolubles were removed by centrifugation at 15,000 rpm for 5 minutes. DNA in the supernatant was further removed by centrifugation at 15,000 rpm for 10 minutes using Microcon with 10 kDa cutoff (Millipore). In the experiment with the digested calf thymus DNA, the peptides were separated by a Waters Xterra RP-18 column using a gradient of 0-30% acetonitrile in 0.1% trifluoroacetic acid. […]

T1 sequence (Q8N6T7 whole entry): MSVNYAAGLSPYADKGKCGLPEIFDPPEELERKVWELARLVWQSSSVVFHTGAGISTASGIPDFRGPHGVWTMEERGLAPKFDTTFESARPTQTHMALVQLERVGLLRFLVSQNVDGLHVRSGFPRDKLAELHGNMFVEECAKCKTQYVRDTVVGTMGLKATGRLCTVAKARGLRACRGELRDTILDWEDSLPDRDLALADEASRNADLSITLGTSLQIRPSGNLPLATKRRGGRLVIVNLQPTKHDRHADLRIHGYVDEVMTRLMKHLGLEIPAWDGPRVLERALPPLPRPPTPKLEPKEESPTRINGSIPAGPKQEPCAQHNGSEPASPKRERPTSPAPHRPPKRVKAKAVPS
T2 sequence (Q8N6T7 whole entry, one chain of several): as the sequence (Q8N6T7 whole entry) above
T3 sequence (Q8N6T7 with tags, fused parts or gaps): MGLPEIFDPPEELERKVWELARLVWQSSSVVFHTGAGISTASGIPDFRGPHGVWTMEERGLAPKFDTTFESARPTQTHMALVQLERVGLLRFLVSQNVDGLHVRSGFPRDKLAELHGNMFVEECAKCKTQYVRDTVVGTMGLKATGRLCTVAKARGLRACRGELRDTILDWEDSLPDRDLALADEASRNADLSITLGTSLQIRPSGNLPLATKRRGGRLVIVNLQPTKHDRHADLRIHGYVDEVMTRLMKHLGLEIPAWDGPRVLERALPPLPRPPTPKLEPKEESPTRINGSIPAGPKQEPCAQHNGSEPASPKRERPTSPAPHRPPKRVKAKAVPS

`NC(=O)c1ccc[n+]([C@@H]2O[C@H](COP(=O)([O-])O)C(O)C2(Cl)Cl)c1` (stereo partly drawn) [gem-diCl-NMN] was tested, and the SIRT6 activated (SirT6 [1]; at 500 μM) was 90% activated at 500 μM.

Work on `NC(=O)c1ccc[n+]([C@@H]2O[C@H](CO)C(O)C2(Cl)Cl)c1` (stereo partly drawn) [gem-diCl-NR] yielded an SIRT6 activated (SirT6 [1]; at 1 mM) of 30% activated at 1 mM.

`NC(=O)c1ccc[n+]([C@@H]2O[C@H](CO)[C@@H](O)C2(F)F)c1` [gem-diF-NR, 1-(2′-deoxy-2′,2′-difluoro-ribofuranosyl)-nicotinamide] gave an SIRT6 activated (SirT6 [1]; at 500 μM) of 30% activated at 500 μM.

With `NC(=O)c1ccc[n+]([C@@H]2O[C@H](CO)[C@H](O)C2F)c1` (stereo partly drawn) [ribo-F-NR, 1-(2-deoxy-2-fluoro-D-ribofuranosyl)-nicotinamide] the SIRT6 activated (SirT6 [1]; at 550 μM) was 17% activated at 550 μM.

For `Cc1ccc(C(=O)Nc2ccc(S(=O)(=O)O)c3cc(S(=O)(=O)O)cc(S(=O)(=O)O)c23)cc1NC(=O)c1cccc(NC(=O)Nc2cccc(C(=O)Nc3cc(C(=O)Nc4ccc(S(=O)(=O)O)c5cc(S(=O)(=O)O)cc(S(=O)(=O)O)c45)ccc3C)c2)c1` [suramin], the “Vmax of dissociated DNA” value (SirT6-DNA complex; in the absence of H3) was 6.37 ng/µL, the Kd (SirT6-DNA complex; in the absence of H3) was 72.4 µM and the “Vmax of dissociated DNA” value (SirT6-DNA complex; in the presence of H3) was 17.8 ng/µL. For the same molecule, the Kd (SirT6-DNA complex; in the presence of H3) was 129 µM, the “Activation of truncated SirT6 deacetylation” value [2] was “lost of activation” and the Kd (SirT6 [3]) was 54.7 µM. The “Association of DNA to SirT6” value (SirT6 [4]) was “weakened”.

B1: dsDNA: dsDNA, forward SEQ ID NO: 10, reverse SEQ ID NO: 11, Integrated DNA Technologies (nucleic acid)
sense: AAGCATTTATCAGGGTTATTGTCTCATGAGCGGAT
antisense: ATCCGCTCATGAGACAATAACCCTGATAAATGCTT
modifications: DNA, backbone and methylation of C not given here
B1 was tested, and the Kd (SirT6 [5]) was greater than 10 mM.
